Patent US4639541A, “Substituted phenylacetic acid iodopropargyl esters, biocidal agents containing same and process for manufacturing same” (priority 1984, dated 1987)

Tests used:
Alternaria tenuis = experiment: Spore germination test, Alternaria tenuis; assay type: cell-based; conditions: 48 hours, 20° C., vs untreated control
Description: (§1) 50 μl of a solution or suspension of an active ingredient according to the invention together with 50 μl of a spore suspension produced by washing spores of an agar culture with a nutrient solution that contained per liter 10 g of sugar, 1 g of glycol, 1 g of KH2 PO4 and 0.5 g of MgSO4 were introduced into the concave-ground portion of concave-ground microscope slides.
(§2) The microscope slides were stored at 20° C. for 48 hours in a Petri dish, the base of which was covered with a moistened filter paper.
(§3) Subsequently, the ratio of germinated and non-germinated spores was compared with an untreated control specimen.
(§4) The degree of activity was calculated as a percentage in accordance with the following formula: [formula]

Fusarium nivale = experiment: Spore germination test, Fusarium nivale; assay type: cell-based; conditions: 48 hours, 20° C., vs untreated control
Description: as §1, §2, §3, §4

Colletotrichum coffeanum = experiment: Spore germination test, Colletotrichum coffeanum; assay type: cell-based; conditions: 48 hours, 20° C., vs untreated control
Description: as §1, §2, §3, §4

Botrytis cinerea [1] = experiment: Fungicidal activity against Botrytis cinerea in broad beans; assay type: in vivo; conditions: 500 ppm spray, broad beans "Midget", after 6 days, 20° C., 95% humidity, vs untreated
Description: Broad beans of the "Midget" variety were grown to a height of approximately 10 cm. The plants were sprayed until dripping wet with spray liquors containing 500 ppm of active ingredient.
When the spray coating had dried, the plants were inoculated with a spore suspension of Botrytis cinerea. The plants were placed in a climatic cabinet at a constant 20° C. and an atmospheric humidity of 95%.
After 6 days, fungicidal activity was evaluated. The activity was ascertained in comparison with untreated specimens.
The degree of activity as a percentage was ascertained in accordance with the following formula [formula] The following were used as active ingredients: I 2-chloro-3,5-dinitrophenylacetic acid iodopropargyl ester

Penicillium glaucum = experiment: Spore germination test, Penicillium glaucum; assay type: cell-based; conditions: 48 hours, 20° C., vs untreated control
Description: as §1, §2, §3, §4

Verticillium dahliae = experiment: Spore germination test, Verticillium dahliae; assay type: cell-based; conditions: 48 hours, 20° C., vs untreated control
Description: as §1, §2, §3, §4

Botrytis cinerea [2] = experiment: Spore germination test, Botrytis cinerea; assay type: cell-based; conditions: 48 hours, 20° C., vs untreated control
Description: as §1, §2, §3, §4

Fusarium culmorum = experiment: Spore germination test, Fusarium culmorum; assay type: cell-based; conditions: 48 hours, 20° C., vs untreated control
Description: as §1, §2, §3, §4

## O=C(Cc1cc([N+](=O)[O-])c(Cl)c([N+](=O)[O-])c1)OCC#CI [H]
Alternaria tenuis; 2 ppm
  degree of activity (fungal toxicity with respect to fungal spores): 100%
Fusarium nivale; 2 ppm
  degree of activity (fungal toxicity with respect to fungal spores): 90%
Colletotrichum coffeanum; 2 ppm
  degree of activity (fungal toxicity with respect to fungal spores): 100%
Botrytis cinerea [1]
  % Activity against Botrytis cinerea in broad beans: 30%
Penicillium glaucum; 2 ppm
  degree of activity (fungal toxicity with respect to fungal spores): 100%
Verticillium dahliae; 2 ppm
  degree of activity (fungal toxicity with respect to fungal spores): 40%
Botrytis cinerea [2]; 2 ppm
  degree of activity (fungal toxicity with respect to fungal spores): 70%
Fusarium culmorum; 2 ppm
  degree of activity (fungal toxicity with respect to fungal spores): 90%

## O=C(Cc1ccccc1)OCC#CI [V]
Alternaria tenuis; Alternaria alternata, 1 ppm, read-out: degree of activity (fungal toxicity with respect to fungal spores)
  inhibition of growth at 1 ppm: 80%
Alternaria tenuis; Alternaria alternata, 2 ppm, read-out: degree of activity (fungal toxicity with respect to fungal spores)
  inhibition of growth at 2 ppm: 90%
Alternaria tenuis; Alternaria alternata, 4 ppm, read-out: degree of activity (fungal toxicity with respect to fungal spores)
  inhibition of growth at 4 ppm: 100%
Fusarium nivale; Microdochium nivale, 1 ppm, read-out: degree of activity (fungal toxicity with respect to fungal spores)
  inhibition of growth at 1 ppm: 60%
Fusarium nivale; Microdochium nivale, 2 ppm, read-out: degree of activity (fungal toxicity with respect to fungal spores)
  inhibition of growth at 2 ppm: 70%
Fusarium nivale; Microdochium nivale, 4 ppm, read-out: degree of activity (fungal toxicity with respect to fungal spores)
  inhibition of growth at 4 ppm: 90%
Colletotrichum coffeanum; Colletotrichum coffeanum, 1 ppm, read-out: degree of activity (fungal toxicity with respect to fungal spores)
  inhibition of growth at 1 ppm: 20%
Colletotrichum coffeanum; Colletotrichum coffeanum, 2 ppm, read-out: degree of activity (fungal toxicity with respect to fungal spores)
  inhibition of growth at 2 ppm: 30%
Colletotrichum coffeanum; Colletotrichum coffeanum, 4 ppm, read-out: degree of activity (fungal toxicity with respect to fungal spores)
  inhibition of growth at 4 ppm: 80%
Botrytis cinerea [1]
  % Activity against Botrytis cinerea in broad beans: 0%
Penicillium glaucum; Penicillium, 1 ppm, read-out: degree of activity (fungal toxicity with respect to fungal spores)
  inhibition of growth at 1 ppm: 0%
Penicillium glaucum; Penicillium, 2 ppm, read-out: degree of activity (fungal toxicity with respect to fungal spores)
  inhibition of growth at 2 ppm: 0%
Penicillium glaucum; Penicillium, 4 ppm, read-out: degree of activity (fungal toxicity with respect to fungal spores)
  inhibition of growth at 4 ppm: 40%
Verticillium dahliae; Verticillium dahliae, 1 ppm, read-out: degree of activity (fungal toxicity with respect to fungal spores)
  inhibition of growth at 1 ppm: 0%
Verticillium dahliae; Verticillium dahliae, 2 ppm, read-out: degree of activity (fungal toxicity with respect to fungal spores)
  inhibition of growth at 2 ppm: 0%
Verticillium dahliae; Verticillium dahliae, 4 ppm, read-out: degree of activity (fungal toxicity with respect to fungal spores)
  inhibition of growth at 4 ppm: 30%
Botrytis cinerea [2]; Botrytis cinerea, 1 ppm, read-out: degree of activity (fungal toxicity with respect to fungal spores)
  inhibition of growth at 1 ppm: 0%
Botrytis cinerea [2]; Botrytis cinerea, 2 ppm, read-out: degree of activity (fungal toxicity with respect to fungal spores)
  inhibition of growth at 2 ppm: 0%
Botrytis cinerea [2]; Botrytis cinerea, 4 ppm, read-out: degree of activity (fungal toxicity with respect to fungal spores)
  inhibition of growth at 4 ppm: 50%
Fusarium culmorum; Fusarium culmorum, 1 ppm, read-out: degree of activity (fungal toxicity with respect to fungal spores)
  inhibition of growth at 1 ppm: 0%
Fusarium culmorum; Fusarium culmorum, 2 ppm, read-out: degree of activity (fungal toxicity with respect to fungal spores)
  inhibition of growth at 2 ppm: 0%
Fusarium culmorum; Fusarium culmorum, 4 ppm, read-out: degree of activity (fungal toxicity with respect to fungal spores)
  inhibition of growth at 4 ppm: 40%
